Data as given in patent US20220296625A1 (priority 2019, published 2022).
Where two headings read alike, the source gives them in different places.

Columns and labels:
[1] = Body weight of mice after cyclophosphamide i.p. with or without oral LPSp (Example 3); details: 11th day and 13th day from administration; Tukey's multiple comparison test
Experimental: Four-week-old male ICR mice were used. Husbandry of the mice was carried out in a temperature and humidity controlled animal facility under environmental conditions of ad libitum food and water, and 12 hr light/12 hr dark. As food, CE-12 of CLEA Japan, Inc. was provided. After measuring the body weights at the time of delivery, the mice were divided into 3 groups of 6 mice each.
Physiological saline administration group (saline i.p.): 0.5 mL of physiological saline were injected into the peritoneal cavity of each mouse.

[2] = format: in vivo, mice; details: for Mice body weights after anticancer agent administration (relative value in % with body weights for saline i.p. being 100): LPSp 1 mg/kg body weight/day in drinking water
Description: (§1) Four-week-old male ICR mice were used.

[3] = tested on: male ICR mice; assay: Survival of mice after cisplatin i.p. with or without oral LPSp (Example 2); format: in vivo; details: cisplatin 17.4 mg/kg i.p.; for Survival rate (%): LPSp 1 mg/kg body weight/day in drinking water
Description: as §1

[4] = tested on: male C57BL mice; assay: Survival of mice after streptozotocin i.p. with or without oral LPSea (Example 5); format: in vivo; details: STZ 313 mg/kg i.p.; for Survival rate (%): LPSea 1 mg/kg body weight/day in drinking water
Description: 1) Reagents • LPS (LPSea) derived from Enterobacter asburiae belonging to genus Enterobacter of family Enterobacteriaceae (Macrophi Inc.) • Streptozotocin (STZ) (SAJ-S0130 of Sigma-Aldrich)
(§2) Six-week-old male C57BL mice were used. […] As food, the D12450B diet of Research Diets, Inc. was provided.

[5] = tested on: male C57BL mice; assay: Survival of mice after streptozotocin i.p. with or without oral LPSp (Example 1); format: in vivo; details: STZ 250 mg/kg i.p.; for Survival rate (%): LPSp 100 μg/kg body weight/day in drinking water
Experimental: 1) Reagents • LPS (LPSp) derived from Pantoea agglomerans belonging to genus Pantoea of family Enterobacteriaceae (mac0001 of Macrophi Inc.) • Streptozotocin (STZ) (SAJ-S0130 of Sigma-Aldrich)
as §2
PBS administration group (PBS i.p.): 0.5 mL of phosphate buffer saline (PBS) were injected into the peritoneal cavity of each mouse.

## O=P1(N(CCCl)CCCl)NCCCO1 (stereo not shown) [CY i.p., Cyclophosphamide]
[1]
  weight loss in comparison to the physiological saline administration group: significant weight loss

## O=c1[nH]cc(F)c(=O)[nH]1 [5-FU i.p., 5-fluorouracil]
[2]; 0 day, 5-fluorouracil 360 mg/kg i.p.
  Mice body weights after anticancer agent administration (relative value in % with body weights for saline i.p. being 100): 102.0 ± 2.4%
[2]; 3rd day from anticancer agent administration, 5-fluorouracil 360 mg/kg i.p., Tukey's multiple comparison test
  weight loss in comparison to the physiological saline administration group: significant weight loss
[2]; 6th day, Tukey's multiple comparison test P<0.05
  body weight, comparison of 5-FU i.p. and 5-FU i.p.+LPS groups: significantly low
[2]; 3 day, 5-fluorouracil 360 mg/kg i.p.
  Mice body weights after anticancer agent administration (relative value in % with body weights for saline i.p. being 100): 91.8 ± 4.1 %
[2]; 6 day, 5-fluorouracil 360 mg/kg i.p.
  Mice body weights after anticancer agent administration (relative value in % with body weights for saline i.p. being 100): 94.5 ± 2.6^ %

## N.N.[Cl][Pt][Cl] [CDDP i.p., Cisplatin]
[3]; 14th day, LPSp 1 mg/kg body weight/day, Kaplan-Meier test P<0.05
  mice survived: 1 out of 6
[3]; by the 6th day from anticancer agent administration, LPSp 1 mg/kg body weight/day
  mice died: 5 out of 6
[3]; day 5, 6 mice per group
  Survival rate (%): 50%
[3]; day 6
  Survival rate (%): 16.7%
[3]; day 7
  Survival rate (%): 16.7%
[3]; day 14
  Survival rate (%): 16.7%

## CN(N=O)C(=O)N[C@H]1C(O)O[C@H](CO)[C@@H](O)[C@@H]1O (mixture of isomers) [STZ i.p., Streptozotocin]
[4]; by the 4th day from anticancer agent administration, LPSea 1 mg/kg body weight/day
  mice died: 1 out of 6
[4]; day 3, 6 mice per group
  Survival rate (%): 100%
[4]; day 4
  Survival rate (%): 83.33%
[4]; day 8
  Survival rate (%): 83.33%
[5]; 5th day
  mice died: 6 out of 6
[5]; day 3, 6 mice per group
  Survival rate (%): 66.7%
[5]; day 4
  Survival rate (%): 33.3%
[5]; day 4.5
  Survival rate (%): 33.3%
[5]; day 5
  Survival rate (%): 0.0%
[5]; day 9
  Survival rate (%): 0.0%
[5]; day 11
  Survival rate (%): 0.0%
[5]; day 21
  Survival rate (%): 0.0%
[5]; day 29
  Survival rate (%): 0.0%
